In patent US20040097408A1, “Compounds regulating cell proliferation and differentiation” (priority 2001, published 2004):

How the values were obtained:
[1] = test system: isolated mouse liver mitochondria; test: mitochondrial oxygen consumption (Clarke-type oxygen electrode); assay type: biochemical
Protocol: Mitochondria were isolated from liver of Balb/c7 mice by standard differential centrifugation, and resuspended in isolation buffer (0.2 M sucrose, 10 mM Tris-MOPS pH 7.4, 0.1 mM EGTA-Tris, 0.1% delipidated BSA) (Costantini et al. (1995) Toxicology (99) 77-88). Protein concentration was determined by Bradford assay. For swelling determination, changes in side scatter at 545±2.5 nm of a 0.5 mg/ml suspension of mitochondria in experimental buffer (125 mM KCl, 10 mM Tris-MOPS pH 7.4, 1 mM Pi, 5 mM glutamate, 2.5 mM malate, 10 μM EGTA-Tris, pH 7.4) were monitored by using LS-50B spectrofluorimeter. To monitor changes in mitochondrial membrane potential, the intrinsic potentiometric properties of F16 were used. Mitochondria (0.5 mg/ml) were incubated in experimental buffer with the indicated concentrations of F16 and changes in F16 fluorescence intensity were measured, using a LS-50B spectrofluorimeter at 25° C., with excitation and emission wavelengths set at 415±2.5 nm and 520±5 nm, respectively. […]
The mechanism of PTP induction by F16 was further investigated as follows. […] First, the effects of F16 were measured on basal (state 4) and uncoupled mitochondrial respiration as follows. Oxygen consumption was determined using a Clarke-type oxygen electrode equipped with thermostatic control and magnetic stirring. […]

EpH-A6 cells = test: cell cycle phases by BrdU incorporation / FACS; assay type: cell-based, mouse; settings: 3 μM F16, 30-36 hr, FIG. 5
Protocol: The percentage of cells in the different phases of the cell cycle was assessed by measuring BrdU incorporation into the DNA of the cells. BrdU incorporation into DNA of untreated or F16 treated (3 μM/30-36 hr) EpH-EV and EpH-A6 cells was assessed by FACS as follows. After F16 or mock treatment, the cells were pulsed with BrdU (20 μM) for 1 hour and then fixed in 70% ethanol at −20° C. overnight. Next morning cells were washed twice with 1×PBS and the DNA was denatured by incubation of the cells in 2N HCl/0.5% Triton X-100. The cells were then washed twice in 0.1M Na2B2O7, and once in PBS. The cells were resuspended in PBS, incubated with 20 μL of anti-BrdU/FITC(Becton Dickinson) for 1 hour and subsequently washed with 1×PBS and resuspended in PBS. RNA was digested with RNaseA (1 μL of 10 mg/mL stock) at 37° C. for 30 minutes. Finally, the cells were diluted with 1 mL of 5 μg/mL propidium iodide/PBS and incubated on ice for 15 minutes. The labeled cells were analyzed using the FACSCalibur (Becton Dickinson).

[2] = test system: EpH4-EV and EpH4-A6 cells; test: superoxide levels by dihydroethidium flow cytometry; assay type: cell-based, mouse; settings: 3 μM F16, FIG. 11
Text: Besides ATP synthesis, the mitochondria plays different roles in cell physiology, among them control of the redox state of cells. Changes in the level of superoxide anion as an indicator of alterations in reactive oxygen intermediates generation by mitochondria of cells treated with F16 was examined by flow cytometry. Changes in the levels of intracellular oxidants were investigated using the fluorescent probe dihydroethidium (DHE) (Molecular Probes). Superoxide anion can oxidate DHE to ethidium bromide (EtBr) which binds to DNA. […] EpH4-EV and EpH4-A6 cells were grown in the absence or in the presence of 3 μM F16 for 15, 24, 48 and 72 hr. cells were resuspended and diluted to 10^6 cells/mL. DHE was added to the cell suspension to a final 2 μM in each case. Cells were incubated at 37° C. for 15 min and immediately analysed using flow cytometry.

[3] = test system: Neu, PKB/Akt and MAP kinase in EpH4-A6 cells; test: Western blot of Neu-dependent signaling; assay type: cell-based, mouse; settings: 3 μM F16, FIG. 12
Protocol: In parallel to the characterization of the effect of F16 on mitochondria homeostasis the effect of F16 on cell signaling was investigated. Control and Neu-overexpressing EpH4-A6 cells were left untreated or treated with 3 μM F16 for 24 and 48 hr. Whole cell lysates were prepared as described above. Samples were immnoblotted with antibodies against Neu, PKB, MAPK, as well as antibodies that react with the phosphorylated forms of the proteins, as described above. Samples were probed with anti-β-actin as loading control, also as described above.

[4] = test system: F16-resistant normal mammary epithelial and human cancer cell lines; test: F16 accumulation in the presence of MDR-1 and MRP1 inhibitors; assay type: cell-based; settings: 3 μM F16 with 50 μM verapamil/1 mM probenecid
Text: To evaluate the effect of multi-drug resistance pumps on the F16-insensitive cells, inhibitors of MDR-1 and MRP1 were utilized (Lizardet al. (1994) Cell Biol Toxicol (10) 399-406).

[5] = test system: isolated mouse liver mitochondria; test: swelling of isolated mitochondria (permeability transition pore opening); assay type: biochemical; settings: 0.5 mg/ml mitochondria
Protocol: Mitochondria were isolated from liver of Balb/c7 mice by standard differential centrifugation, and resuspended in isolation buffer (0.2 M sucrose, 10 mM Tris-MOPS pH 7.4, 0.1 mM EGTA-Tris, 0.1% delipidated BSA) (Costantini et al. (1995) Toxicology (99) 77-88). Protein concentration was determined by Bradford assay. For swelling determination, changes in side scatter at 545±2.5 nm of a 0.5 mg/ml suspension of mitochondria in experimental buffer (125 mM KCl, 10 mM Tris-MOPS pH 7.4, 1 mM Pi, 5 mM glutamate, 2.5 mM malate, 10 μM EGTA-Tris, pH 7.4) were monitored by using LS-50B spectrofluorimeter. […] All reactions were performed at 25° C. and the instrument was equipped with magnetic stirring.

For `C[n+]1ccc(/C=C/c2c[nH]c3ccccc23)cc1.[I-]` [F16], the uncoupled mitochondrial respiration [1] was “inhibits uncoupled respiration”, the “state 4 (basal) mitochondrial oxygen consumption” value ([1]; substrates for complexes I and II+III) was “increase in state 4 of mitochondrial oxygen consumption” and the “percentage of cells in G1 phase” value (EpH-A6 cells) was “increase”. The “percentage of cells in the S phase” value (EpH-A6 cells) was “dramatic decrease”, the “superoxide level (ethidium/DNA fluorescence)” value [2] was “increase in the ethidium/DNA fluorescence” and the “phosphotyrosine content of Neu, phosphorylated PKB/Akt, and phosphorylated MAP kinase” value [3] was “decreased”. The “F16 mitochondrial accumulation with MDR-1/MRP1 inhibitors” value [4] was “did not result in F16 mitochondrial accumulation” and the “swelling of purified mitochondria” value [5] was “swelling of purified mitochondria in a dose-dependent fashion”.
